The values that follow come from ChEMBL document CHEMBL4507268 (2021).

The target of assay [1] is Activin receptor type-2B (Homo sapiens) (UniProt Q13705). The settings on record: Compound concentration 1000.0 nM.
Assay [2] concerns the target Serine/threonine-protein kinase 24 (Homo sapiens) (UniProt Q9Y6E0). The following applies: Compound concentration 1000.0 nM.
Assay [3] has as its target Serine/threonine-protein kinase 32B (Homo sapiens) (UniProt Q9NY57). The following applies: Compound concentration 1000.0 nM.
Assay [4] deals with Histamine H3 receptor (Homo sapiens) (UniProt Q9Y5N1). The settings on record: Compound concentration 10.0 uM.
In assay [5] the target is Death-associated protein kinase 1 (Homo sapiens) (UniProt P53355). The following applies: Compound concentration 1000.0 nM.
The target in assay [6] is Sigma non-opioid intracellular receptor 1 (Homo sapiens, UniProt Q99720). The assay is described as follows: GPCRScan assay: inhibition of Sigma 1. On the set-up: radioligand conc. used [nm] 4.0 – 5.0, parental cells HEKT.
Sequence of Sigma non-opioid intracellular receptor 1 (Q99720 whole entry): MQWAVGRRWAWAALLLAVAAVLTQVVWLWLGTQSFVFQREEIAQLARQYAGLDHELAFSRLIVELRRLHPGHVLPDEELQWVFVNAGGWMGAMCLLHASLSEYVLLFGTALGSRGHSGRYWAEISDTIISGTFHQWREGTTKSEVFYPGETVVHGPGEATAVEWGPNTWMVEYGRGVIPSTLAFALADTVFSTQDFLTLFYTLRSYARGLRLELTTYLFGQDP
Assay [7] addresses Protein-tyrosine kinase 6 (Homo sapiens) (UniProt Q13882). The settings on record: Compound concentration 1000.0 nM.
The target of assay [8] is T1, Tyrosine-protein kinase Mer (Homo sapiens) (UniProt Q12866).
T1 sequence (whole entry): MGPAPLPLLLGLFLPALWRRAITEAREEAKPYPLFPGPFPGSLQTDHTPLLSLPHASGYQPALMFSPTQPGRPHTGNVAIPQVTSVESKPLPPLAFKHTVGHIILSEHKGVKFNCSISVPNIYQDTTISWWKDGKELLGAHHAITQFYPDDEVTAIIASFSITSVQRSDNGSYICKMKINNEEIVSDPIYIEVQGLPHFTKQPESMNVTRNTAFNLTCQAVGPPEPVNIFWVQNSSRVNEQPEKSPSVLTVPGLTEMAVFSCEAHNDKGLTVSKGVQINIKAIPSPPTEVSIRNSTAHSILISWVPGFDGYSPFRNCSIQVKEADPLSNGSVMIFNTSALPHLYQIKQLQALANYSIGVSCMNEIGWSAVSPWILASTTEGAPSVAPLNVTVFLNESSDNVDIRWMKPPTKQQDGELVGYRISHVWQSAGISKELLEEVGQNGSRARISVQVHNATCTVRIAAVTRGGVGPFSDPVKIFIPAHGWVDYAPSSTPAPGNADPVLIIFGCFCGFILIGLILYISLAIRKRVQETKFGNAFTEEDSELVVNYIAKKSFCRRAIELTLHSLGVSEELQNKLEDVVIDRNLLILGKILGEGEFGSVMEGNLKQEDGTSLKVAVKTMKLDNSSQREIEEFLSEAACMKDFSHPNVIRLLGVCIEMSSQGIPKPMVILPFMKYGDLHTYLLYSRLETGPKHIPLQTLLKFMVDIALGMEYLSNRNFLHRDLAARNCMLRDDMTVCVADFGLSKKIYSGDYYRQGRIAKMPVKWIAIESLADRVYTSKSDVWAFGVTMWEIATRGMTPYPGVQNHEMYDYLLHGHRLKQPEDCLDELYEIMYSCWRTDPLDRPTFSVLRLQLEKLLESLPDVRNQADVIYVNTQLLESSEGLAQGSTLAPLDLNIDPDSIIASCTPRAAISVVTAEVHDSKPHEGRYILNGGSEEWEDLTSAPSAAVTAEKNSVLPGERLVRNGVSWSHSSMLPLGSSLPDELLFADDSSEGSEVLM
The settings on record: Compound concentration 1000.0 nM.

Assay [9] addresses TGF-beta receptor type-2 (Homo sapiens) (UniProt P37173). The following applies: Compound concentration 1000.0 nM.
The target of assay [10] is Ribosomal protein S6 kinase alpha-6 (Homo sapiens) (UniProt Q9UK32). The settings on record: Compound concentration 1000.0 nM.
Assay [11] concerns the target Receptor tyrosine-protein kinase erbB-4 (Homo sapiens) (UniProt Q15303). The settings on record: Compound concentration 1000.0 nM.
Assay [12] has as its target Tyrosine-protein kinase receptor Tie-1 (Homo sapiens) (UniProt P35590). The settings on record: Compound concentration 1000.0 nM.
In assay [13] the target is Tyrosine-protein kinase BTK (Homo sapiens) (UniProt Q06187). The settings on record: Compound concentration 1000.0 nM.
Assay [14] addresses RAC-gamma serine/threonine-protein kinase (Homo sapiens) (UniProt Q9Y243). The following applies: Compound concentration 1000.0 nM.
Assay [15] deals with Tyrosine-protein kinase ABL1 (Homo sapiens), P00519 [F317I]. The settings on record: Compound concentration 1000.0 nM.
In assay [16] the target is Tyrosine-protein kinase HCK (Homo sapiens) (UniProt P08631). The following applies: Compound concentration 1000.0 nM.
Assay [17] deals with Proto-oncogene tyrosine-protein kinase receptor Ret (Homo sapiens), P07949 [V804L]. The settings on record: Compound concentration 1000.0 nM.
In assay [18] the target is T2, Dual specificity tyrosine-phosphorylation-regulated kinase 2 (Homo sapiens) (UniProt Q92630).
T2 sequence (whole entry): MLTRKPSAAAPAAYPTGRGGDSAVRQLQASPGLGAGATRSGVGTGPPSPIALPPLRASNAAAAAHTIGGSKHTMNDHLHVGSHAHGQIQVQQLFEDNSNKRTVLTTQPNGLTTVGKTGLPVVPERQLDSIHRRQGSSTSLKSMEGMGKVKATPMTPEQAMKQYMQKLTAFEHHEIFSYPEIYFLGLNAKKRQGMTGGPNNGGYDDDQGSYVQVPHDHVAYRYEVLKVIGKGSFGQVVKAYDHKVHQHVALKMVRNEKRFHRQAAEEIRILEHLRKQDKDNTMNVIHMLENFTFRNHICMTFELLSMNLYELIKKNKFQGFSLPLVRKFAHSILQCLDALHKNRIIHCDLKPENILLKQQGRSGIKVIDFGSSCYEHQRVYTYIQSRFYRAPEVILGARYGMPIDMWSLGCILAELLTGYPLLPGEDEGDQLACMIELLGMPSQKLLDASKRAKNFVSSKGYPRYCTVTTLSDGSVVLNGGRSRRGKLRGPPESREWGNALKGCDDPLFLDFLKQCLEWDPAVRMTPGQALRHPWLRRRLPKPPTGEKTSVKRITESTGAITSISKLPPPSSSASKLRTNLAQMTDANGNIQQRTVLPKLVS
The following applies: Compound concentration 1000.0 nM.

Assay [19] addresses Tyrosine-protein kinase JAK1 (Homo sapiens) (UniProt P23458). The settings on record: Compound concentration 1000.0 nM.
The target in assay [20] is Tyrosine-protein kinase Srms (Homo sapiens) (UniProt Q9H3Y6). The settings on record: Compound concentration 1000.0 nM.
The target in assay [21] is Dual specificity tyrosine-phosphorylation-regulated kinase 1A (Homo sapiens) (UniProt Q13627). The following applies: Compound concentration 1000.0 nM.
Assay [22] addresses Serine/threonine-protein kinase 33 (Homo sapiens) (UniProt Q9BYT3). The following applies: Compound concentration 1000.0 nM.
In assay [23] the target is 5-hydroxytryptamine receptor 1A (Homo sapiens) (UniProt P08908). The following applies: Compound concentration 10.0 uM.
Assay [24] concerns the target Serine/threonine-protein kinase 35 (Homo sapiens) (UniProt Q8TDR2). The following applies: Compound concentration 1000.0 nM.

SMILES strings stand for the structures.

Sequence of TGF-beta receptor type-2 (Homo sapiens) (P37173 whole entry): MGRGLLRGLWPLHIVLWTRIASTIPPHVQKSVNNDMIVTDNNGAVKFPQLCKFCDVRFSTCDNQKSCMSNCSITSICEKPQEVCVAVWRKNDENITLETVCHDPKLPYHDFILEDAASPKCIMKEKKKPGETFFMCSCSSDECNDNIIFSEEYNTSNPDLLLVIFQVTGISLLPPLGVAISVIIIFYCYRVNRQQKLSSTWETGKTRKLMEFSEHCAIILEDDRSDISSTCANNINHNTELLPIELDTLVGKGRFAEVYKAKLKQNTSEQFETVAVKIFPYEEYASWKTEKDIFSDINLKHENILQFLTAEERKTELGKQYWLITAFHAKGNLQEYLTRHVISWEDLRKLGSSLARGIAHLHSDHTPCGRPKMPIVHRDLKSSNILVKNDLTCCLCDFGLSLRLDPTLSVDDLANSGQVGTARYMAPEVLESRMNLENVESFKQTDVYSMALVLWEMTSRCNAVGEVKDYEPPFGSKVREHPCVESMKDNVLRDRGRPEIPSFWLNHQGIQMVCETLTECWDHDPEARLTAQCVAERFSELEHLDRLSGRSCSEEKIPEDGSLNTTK
Sequence of Activin receptor type-2B (Homo sapiens) (Q13705 whole entry): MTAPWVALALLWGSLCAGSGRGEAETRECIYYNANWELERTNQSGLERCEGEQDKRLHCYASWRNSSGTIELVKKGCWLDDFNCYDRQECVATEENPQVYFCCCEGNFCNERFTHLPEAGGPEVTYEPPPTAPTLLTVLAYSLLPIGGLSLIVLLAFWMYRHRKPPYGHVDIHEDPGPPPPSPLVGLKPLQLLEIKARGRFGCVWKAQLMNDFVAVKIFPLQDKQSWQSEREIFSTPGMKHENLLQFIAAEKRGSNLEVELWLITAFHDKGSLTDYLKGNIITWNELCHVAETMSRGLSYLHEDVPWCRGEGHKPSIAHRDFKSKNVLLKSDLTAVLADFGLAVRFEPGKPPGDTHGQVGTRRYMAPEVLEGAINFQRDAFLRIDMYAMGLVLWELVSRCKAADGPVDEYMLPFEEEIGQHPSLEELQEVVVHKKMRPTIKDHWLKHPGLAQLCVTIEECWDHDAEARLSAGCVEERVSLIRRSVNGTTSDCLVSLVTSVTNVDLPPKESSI
Sequence of Protein-tyrosine kinase 6 (Homo sapiens) (Q13882 whole entry, looked up): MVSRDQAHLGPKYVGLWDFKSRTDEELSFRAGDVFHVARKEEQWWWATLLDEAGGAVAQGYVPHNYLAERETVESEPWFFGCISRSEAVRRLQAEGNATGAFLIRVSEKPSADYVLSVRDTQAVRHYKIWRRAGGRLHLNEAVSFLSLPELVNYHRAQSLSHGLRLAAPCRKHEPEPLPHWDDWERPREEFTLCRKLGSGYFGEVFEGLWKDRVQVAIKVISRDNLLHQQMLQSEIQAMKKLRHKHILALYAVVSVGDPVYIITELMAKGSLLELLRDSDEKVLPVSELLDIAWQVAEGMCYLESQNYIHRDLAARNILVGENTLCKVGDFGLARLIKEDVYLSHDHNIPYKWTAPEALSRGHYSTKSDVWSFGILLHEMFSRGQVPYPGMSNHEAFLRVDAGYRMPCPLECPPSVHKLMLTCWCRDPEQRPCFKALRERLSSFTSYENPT
Sequence of Tyrosine-protein kinase receptor Tie-1 (Homo sapiens) (P35590 whole entry): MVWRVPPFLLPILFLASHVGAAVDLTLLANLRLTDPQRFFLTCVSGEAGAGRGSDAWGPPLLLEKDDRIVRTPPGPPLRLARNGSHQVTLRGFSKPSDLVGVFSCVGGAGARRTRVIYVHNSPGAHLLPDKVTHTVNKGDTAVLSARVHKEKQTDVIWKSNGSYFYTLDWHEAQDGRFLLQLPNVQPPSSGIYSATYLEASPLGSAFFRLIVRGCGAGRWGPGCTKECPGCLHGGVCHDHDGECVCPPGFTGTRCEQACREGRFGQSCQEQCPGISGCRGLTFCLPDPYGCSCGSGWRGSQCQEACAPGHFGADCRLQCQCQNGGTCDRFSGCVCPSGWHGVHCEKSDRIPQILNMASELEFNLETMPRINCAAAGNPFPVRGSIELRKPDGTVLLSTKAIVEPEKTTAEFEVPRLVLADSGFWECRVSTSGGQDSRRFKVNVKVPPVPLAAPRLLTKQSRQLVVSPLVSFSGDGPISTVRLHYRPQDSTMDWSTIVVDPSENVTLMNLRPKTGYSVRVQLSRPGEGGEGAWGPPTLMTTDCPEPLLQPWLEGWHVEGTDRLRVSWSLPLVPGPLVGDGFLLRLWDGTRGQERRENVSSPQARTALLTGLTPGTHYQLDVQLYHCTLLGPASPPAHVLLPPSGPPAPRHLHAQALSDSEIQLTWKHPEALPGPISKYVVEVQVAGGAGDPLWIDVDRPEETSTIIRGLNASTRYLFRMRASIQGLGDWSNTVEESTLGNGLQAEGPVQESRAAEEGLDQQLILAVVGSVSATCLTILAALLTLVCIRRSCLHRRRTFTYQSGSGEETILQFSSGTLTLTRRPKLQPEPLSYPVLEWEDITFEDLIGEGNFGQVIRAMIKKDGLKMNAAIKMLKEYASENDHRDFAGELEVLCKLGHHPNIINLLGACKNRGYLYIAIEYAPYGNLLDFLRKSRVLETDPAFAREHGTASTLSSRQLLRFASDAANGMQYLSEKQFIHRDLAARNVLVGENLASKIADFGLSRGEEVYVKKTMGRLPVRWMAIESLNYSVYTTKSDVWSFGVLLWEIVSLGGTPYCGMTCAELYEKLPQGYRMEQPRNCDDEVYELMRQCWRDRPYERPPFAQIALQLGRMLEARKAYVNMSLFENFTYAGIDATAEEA
Sequence of Tyrosine-protein kinase JAK1 (Homo sapiens) (P23458 whole entry): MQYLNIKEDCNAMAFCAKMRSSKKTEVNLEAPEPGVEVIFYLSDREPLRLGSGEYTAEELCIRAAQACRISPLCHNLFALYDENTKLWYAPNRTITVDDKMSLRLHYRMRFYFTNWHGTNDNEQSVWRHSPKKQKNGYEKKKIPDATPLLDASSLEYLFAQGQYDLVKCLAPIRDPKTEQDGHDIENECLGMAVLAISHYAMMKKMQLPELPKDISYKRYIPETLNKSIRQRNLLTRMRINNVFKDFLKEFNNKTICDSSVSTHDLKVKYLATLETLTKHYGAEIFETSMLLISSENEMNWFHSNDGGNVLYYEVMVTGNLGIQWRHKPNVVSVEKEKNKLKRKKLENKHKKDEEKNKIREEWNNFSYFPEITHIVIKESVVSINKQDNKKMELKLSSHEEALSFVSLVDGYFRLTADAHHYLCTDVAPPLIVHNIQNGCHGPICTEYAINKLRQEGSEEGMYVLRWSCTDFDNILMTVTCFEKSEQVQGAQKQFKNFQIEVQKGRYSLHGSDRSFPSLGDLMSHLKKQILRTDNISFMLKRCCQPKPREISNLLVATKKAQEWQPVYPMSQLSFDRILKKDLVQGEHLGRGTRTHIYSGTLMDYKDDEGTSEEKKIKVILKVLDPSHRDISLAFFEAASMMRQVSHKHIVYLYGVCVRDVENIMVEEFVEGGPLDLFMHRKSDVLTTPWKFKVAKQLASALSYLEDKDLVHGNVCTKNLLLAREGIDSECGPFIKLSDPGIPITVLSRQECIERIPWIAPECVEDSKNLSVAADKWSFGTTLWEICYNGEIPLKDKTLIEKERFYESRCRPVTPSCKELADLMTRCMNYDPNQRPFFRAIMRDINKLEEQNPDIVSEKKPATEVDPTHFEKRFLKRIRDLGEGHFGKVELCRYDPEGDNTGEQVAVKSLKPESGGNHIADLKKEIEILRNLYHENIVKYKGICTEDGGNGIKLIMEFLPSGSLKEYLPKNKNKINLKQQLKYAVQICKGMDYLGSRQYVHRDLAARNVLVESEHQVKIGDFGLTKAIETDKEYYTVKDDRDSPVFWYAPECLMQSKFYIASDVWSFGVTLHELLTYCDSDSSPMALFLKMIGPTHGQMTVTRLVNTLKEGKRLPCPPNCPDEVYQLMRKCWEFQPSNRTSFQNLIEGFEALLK
Sequence of Serine/threonine-protein kinase 33 (Homo sapiens) (Q9BYT3 whole entry, looked up): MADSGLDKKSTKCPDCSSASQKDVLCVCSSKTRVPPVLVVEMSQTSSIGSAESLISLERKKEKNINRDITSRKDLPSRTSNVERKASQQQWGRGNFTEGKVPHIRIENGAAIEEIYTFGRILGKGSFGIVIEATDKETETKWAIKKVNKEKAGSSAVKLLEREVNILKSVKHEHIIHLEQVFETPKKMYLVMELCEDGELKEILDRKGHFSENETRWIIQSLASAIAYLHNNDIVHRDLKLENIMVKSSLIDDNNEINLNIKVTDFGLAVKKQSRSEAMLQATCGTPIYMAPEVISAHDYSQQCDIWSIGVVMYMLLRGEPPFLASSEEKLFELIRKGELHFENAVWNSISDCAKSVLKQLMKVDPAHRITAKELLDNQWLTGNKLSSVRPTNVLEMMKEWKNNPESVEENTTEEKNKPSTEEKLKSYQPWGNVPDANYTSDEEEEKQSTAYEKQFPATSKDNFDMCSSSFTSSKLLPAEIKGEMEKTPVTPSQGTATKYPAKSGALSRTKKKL
Sequence of Serine/threonine-protein kinase 32B (Homo sapiens) (Q9NY57 whole entry): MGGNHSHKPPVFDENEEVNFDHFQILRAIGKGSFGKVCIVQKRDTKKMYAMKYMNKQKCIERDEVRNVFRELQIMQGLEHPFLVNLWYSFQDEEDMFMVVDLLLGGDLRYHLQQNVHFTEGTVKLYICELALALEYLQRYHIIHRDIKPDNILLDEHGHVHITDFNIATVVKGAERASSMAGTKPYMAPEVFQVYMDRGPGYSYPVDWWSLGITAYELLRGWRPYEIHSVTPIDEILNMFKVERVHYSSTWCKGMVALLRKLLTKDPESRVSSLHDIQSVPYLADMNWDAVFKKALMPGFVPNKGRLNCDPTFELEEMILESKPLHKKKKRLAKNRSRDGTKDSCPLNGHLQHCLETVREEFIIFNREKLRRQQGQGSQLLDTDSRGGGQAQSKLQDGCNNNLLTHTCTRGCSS

Take `Cc1nc(C2CCN(C(=O)c3ccc(OC(F)(F)F)cc3N)CC2)c2ncc(N3CCN(C)CC3)cc2n1` [BAY-693]: the residual activity is 100% in assay [1]; 97% in assay [2]; 90% in [3]; 95% in [5]; 100% in [7]; 87% in [8]. The residual activity in [9] was 93%; in assay [10], 100%; in assay [11], 100%; in [12], 100%; in assay [13] it was 87%; in [14], 95%. In addition, the residual activity in assay [15] was 100%; in [16], 95%; in assay [17] it was 73%; in assay [18], 100%; in assay [19], 90%; in assay [20], 100%. Besides, the residual activity in assay [21], in assay [22] and in assay [24] was 100% each time. Besides, the inhibition in assay [4] is 38.4%; in assay [23] it was -3.88%. Moreover, in assay [6], the Ki was 2370 nM.

On to `CN1CCN(c2cnc3c(C4CCN(C(=O)c5ccc(OC(F)(F)F)cc5N)CC4)ncnc3c2)CC1` [BAY-885], for which the residual activity in [1] is 100%; in [2] it was 100%; in assay [3], 87%; in assay [5], 100%; in assay [7], 100%; in assay [8], 75%. In addition, the residual activity was 88% in assay [9]; 100% in [10]; 79% in assay [11]; 80% in assay [12]; 100% in [13]; 93% in assay [14]. In addition, the residual activity is 100% in assay [15]; 95% in assay [16]; 97% in assay [17]; 100% in assay [18]; 90% in assay [19]; 100% in [20]. In addition, the residual activity in [21] was 100%; in assay [22] it was 99%; in assay [24] it was 100%. In addition, the figures for the inhibition in assay [4] and in assay [23] were 36.9% and 7.38%, respectively. Further, the Ki in assay [6] amounted to 2500 nM.

One may read the residual activity as what remains of the control signal, in per cent. The inhibition is the drop in the measured response relative to a control, in per cent. As a reminder, the Ki is a measure of affinity in units of concentration, obtained from inhibition or displacement.
